# Laboratory results from US7037644B1, “Means and methods for monitoring non-nucleoside reverse transcriptase inhibitor antiretroviral therapy and guiding therapeutic decisions in the treatment of HIV/AIDS” (ViroLogic, Inc., priority 1998, dated 2006).
# Tested on: codon 181 mutant HIV-1
# Assay: not given
# Conditions: cited from earlier work
row,Compound,change in IC between wild-type and codon 181 mutant HIV-1 [fold]
1,"CCc1cc(CCc2nc3c(Cl)ccc(Cl)c3o2)c(=S)[nH]c1C [L-702,019]",3

# Tested on: RTV-268, patient 97-268 (RT M41L, D67N, M184V, L210W, T215Y, K219Q, P236L)
# Assay: Phenotypic susceptibility assay (patient RTV)
# Assay type: cell-based, HIV-1
# Conditions: patient virus RTV-268 vs reference virus
# Source text: The resistance test vectors containing a functional luciferase gene cassette were constructed and host cells were transfected with the resistance test vector DNA. The resistant test vectors contained patient-derived reverse transcriptase and protease sequences that were either susceptible or resistant to the antiretroviral agents, such as nucleoside reverse transcriptase inhibitors, non-nucleoside reverse transcriptase inhibitors and protease inhibitors. The resistance test vector viral particles produced by transfecting the resistance test vector DNA into host cells, either in the presence or absence of protease inhibitors, were used to infect target host cells grown either in the absence of NRTI or NNRTI or in the presence of increasing concentrations of the drug. The amount of luciferase activity produced in infected target host cells in the presence of drug was compared to the amount of luciferase produced in infected target host cells in the absence of drug. Drug resistance was measured as the amount of drug required to inhibit by 50% the luciferase activity detected in the absence of drug (inhibitory concentration 50%, IC50). The IC50 values were determined by plotting percent drug inhibition vs. log10 drug concentration.
# Host cells were seeded in 10-cm-diameter dishes and were transfected several days after plating with resistance test vector plasmid DNA and the envelope expression vector. Transfections were performed using a calcium-phosphate precipitation procedure. The cell culture media containing the DNA precipitate was replaced with fresh medium, from one to 24 hours, after transfection. Cell culture media containing resistance test vector viral particles was harvested one to four days after transfection and was passed through a […] filter before being stored at […]. HIV capsid protein (p24) levels in the harvested cell culture media were determined by an EIA method as described by the manufacturer (SIAC; Frederick, Md.). Before infection, target cells (293 and 293/T) were plated in cell culture media. Control infections were performed using cell culture media from mock transfections (no DNA) or transfections containing the resistance test vector plasmid DNA without the envelope expression plasmid. One to three or more days after infection the media was removed and cell lysis buffer (Promega) was added to each well. Cell lysates were assayed for luciferase activity (FIG. 3). The inhibitory effect of the drug was determined using the following equation: % luciferase inhibition=1−(RLUluc [drug]÷RLUluc)×100 where RLUluc [drug] is the relative light unit of luciferase activity in infected cells in the presence of drug and RLUluc is the Relative Light Unit of luciferase activity in infected cells in the absence of drug. IC50 values were obtained from the sigmoidal curves that were generated from the data by plotting the percent inhibition of luciferase activity vs. the log10 drug concentration. The drug inhibition curves are shown in (FIG. 3).
# A resistance test vector was constructed as described in Example 1 from a patient sample designated 97-268. This patient had been treated with AZT and 3TC (NRTIs), indinavir and saquinavir (PRIs) and delavirdine (an NNRTI) for periods varying from 1 month to 2 years. Isolation of viral RNA and RT/PCR was used to generate a patient derived segment that comprised viral sequences coding for all of PR and amino acids 1-313 of RT. The patient derived segment was inserted into a indicator gene viral vector to generate a resistance test vector designated RTV-268. RTV-268 was then tested using the phenotypic susceptibility assay to determine accurately and quantitatively the level of susceptibility to a panel of anti-retroviral drugs. This panel of anti-retroviral drugs comprised members of the classes known as NRTIs (AZT, 3TC, d4T, ddI and ddC), NNRTIs (delavirdine and nevirapine), and PRIs (indinavir, nelfinavir, ritonavir, and saquinavir). An IC50 was determined for each drug tested. […]
row,Compound,change in susceptibility
1,Nc1ccn([C@@H]2CS[C@H](CO)O2)c(=O)n1 [3TC],significant resistance
2,Cc1cn([C@H]2C[C@H](N=[N+]=[N-])[C@@H](CO)O2)c(=O)[nH]c1=O [AZT],significant resistance
3,Cc1cn([C@H]2C=C[C@@H](CO)O2)c(=O)[nH]c1=O [d4T],slight shifts in susceptibility
4,Nc1ccn([C@H]2CC[C@@H](CO)O2)c(=O)n1 [ddC],slight shifts in susceptibility
5,O=c1[nH]cnc2c1ncn2[C@H]1CC[C@@H](CO)O1 [ddI],slight shifts in susceptibility
